From patent publication US12397041B2, “Vasoactive intestinal peptide release from microparticles” (UNIVERSITY OF PITTSBURGH—OF THE COMMONWEALTH SYSTEM OF …, priority 2009, dated 2025)
“Also recorded” adds a separate entry of the source. Ends that are not written are not given here.

Key:
[1] = tested on: mice infected with A. actinomycetemcomitans (periodontitis); experiment: Mouse periodontitis model with CCL-22 microparticles / systemic VIP, alveolar bone resorption and Treg recruitment; format: in vivo
Method: To this end, B6 mice (n=6) were infected orally with the periodontal pathogen A. actinomycetemcomitans (Aa) and treated with microparticles containing CCL-22 (CCL-22MPs) or empty microparticles (BlankMPs) according to the schedule outlined above. Additionally vasoactive intestinal peptide (VIP) was administered intraperitoneally. Mice receiving only PBS and the thickener carboxymethyl cellulose served as controls (Untreated). Experimental treatments were administered in the periodontal pocket of the right maxilla while left maxillae were used as internal negative controls in each mouse. Alveolar bone loss was quantified as the area between the cementoenamel junction (CEJ) and the alveolar bone crest (ABC) FIG. 23, CEJ and FIG. 23A, ABC). Alveolar bone levels are shown on the left (internal control, FIG. 23A LEFT) and right (BlankMP treated, FIG. 23A RIGHT) maxilla.

FoxP3+CD4+ T-cells = experiment: Chemotaxis of CD4+ T-cells through transwells toward treated DCs, FoxP3+ by flow cytometry; format: cell-based, mouse; conditions: LPS
Method: (§1) In the first two experiments, both GM-CSF and IL-4 were added to DC media (modified RPMI 1640) of bone marrow cell cultures during media changes on Days 0, 3 and 6. In the third experiment, the IL-4 was purposely omitted and GM-CSF was added in 5× concentration. On Day 6, CD11c+ DC cells were isolated using MACS cell sorting beads and plated in a 24-well plate at 100,000 cells/well. Five different groups of four wells each were analyzed and received treatment. […] A mature DC control group received only LPS. Three different groups were matured with LPS and received different concentrations of either soluble VIP or releasates of VIP microparticles or blank microparticles (using the 12.6 kDa polymer).
Preliminary Protocol: Soluble VIP was added to the third group in concentration of 2.5×10^−8 M. Ten milligrams of microparticles were first incubated for 4-6 hours in media and 250 μL of releasates were added to each well. […]
For chemotaxis studies, in the first two experiments, both GM-CSF and IL-4 were added to DC media (modified RPMI 1640) of bone marrow cell cultures during media changes on Days 0, 3 and 6. […] Five different groups of four wells each were analyzed and received treatment. […]
CD4+ T-cells were isolated from the spleen and lymph nodes of a mouse using Dynal beads following the lab protocol. […] T Cells that flowed through were analyzed for FoxP3+ expression using flow cytometry.

dendritic cells = experiment: CCL22 production by dendritic cells (ELISA); format: cell-based, murine; conditions: LPS-matured DCs, soluble VIP
Method: Dendritic cells were isolated from murine bone marrow and cultured following standard procedures.
as §1
Dose Response Protocol: Soluble VIP was added in concentrations of 10^−6 M, 10^−8 M, and 10^−9 M to both immature DC groups and DCs matured with LPS. Twelve different groups were matured with LPS and received different concentrations of either blank porous, blank nonporous, VIP porous, or VIP nonporous microparticles (of the 12.6 kDa polymer). Microparticles were added in concentrations of either 2.77 mg/mL, 1.39 mg/mL, and 0.277 mg/mL. In a second DC culture, the low concentration of microparticles was reduced to 0.0556 mg/mL. […]

[2] = tested on: FoxP3, IL-10, RANKL, CCL-22 mRNA in periodontal tissues; experiment: Real-time PCR of markers in periodontal tissues of diseased mice; format: in vivo, mouse; conditions: systemic injections at days −1, 7, 14, 21, 28
Method: To verify that Tregs are recruited toward microparticles that sustain release of CCL-22, formulations were administered into the periodontium of diseased mice. Briefly, mice were orally exposed to the periodontal pathogen A. actinomycetemcomitans (Aar) on day 0, and also received CCL-22 microparticles (CCL-22MPs) or blank (empty) microparticles (BlankMPs) in their periodontal pockets. Specifically, mice received microparticle injections at day −1, 10 and 20, mice treated with VIP injections received systemic injections at days −1, 7, 14, 21, 28. Untreated mice served as negative controls. At day 30, all mice were sacrificed and maxilla's were resected. […] FIG. 22A. […] Figure BIB. […] FIG. 22C.
In this experiment, artificial antigen presenting cells providing a CCL-22 controlled release formulation were injected into palatal gingival tissue of right molars of mice (n=3) at the times of −1, 10 and 20 days of periodontal infection. At 30 days, total RNA was extracted from periodontal tissues as previously described and analyzed for regulatory T-cell and periodontal disease factor. […]
Real-Time PCR Analysis. […] RealTime-PCR quantitative mRNA analyses will be done in a MiniOpticon system (BioRad, Hercules, CA), using SybrGreen Master Mix (Invitrogen), 100 nM specific primers, and 2.5 ng of cDNA in each reaction. […]

CD4+ T cells (CCR4) = experiment: In vitro transwell migration assay toward CCL22; format: cell-based, murine; conditions: activated vs naïve CD4+ T cells
From the text: (* p<0.05, one-tailed Students ‘t’ test).
Simultaneously, the ability of CCL22 to attract murine T cells was examined. Expression of chemokine receptors for CCL22 (i.e., for example, the CCR4 receptor) are known to control the ability of cells to respond to CCL22 gradients. Moreover, there is evidence that only activated T cells express the CCR4 receptor. Baatar et al., Journal of Immunology 178: 4891-4900 (2007); Lim et al., Journal of Immunology 177:840-851 (2006); and Lee et al., Journal of Experimental Medicine 201:1037-1044 (2005); and FIG. 18A. […] FIG. 18B.

Row | Molecule | alveolar bone resorption / bone loss ([1]; MPs at day −1, 10, 20, VIP systemic IP, day 30, vs BlankMPs / negative controls) | Treg (FoxP3+ cell) recruitment to gingival / periodontal tissues ([1]; mouse, in vivo) | percent of FoxP3+ cells recruited by DCs (FoxP3+CD4+ T-cells; DC precursors cultured with IL-4 and GM-CSF, soluble VIP 2.5×10^−8 M or releasates) | percent of FoxP3+ cells recruited by DCs (FoxP3+CD4+ T-cells; absence of IL-4, 5× GM-CSF) | CCL-22 production relative to mature DC control group (dendritic cells) | endogenous CCL-22 production [2] | T cell migration towards a CCL22 gradient (CD4+ T cells (CCR4))
1 | vasoactive intestinal peptide (HSDAVFTDNYTRLRKQMAVKKYLNSILN; ends and bridges not checked; UniProt P01282 125-152, looked up) [VIP, neuropeptide of twenty-eight (28) amino acids in length originally isolated from the intestine] | significantly less alveolar bone resorption than BlankMPs | effectively induce Treg migration to periodontal tissues | recruited a higher percentage of FoxP3+ cells than DCs that only received LPS or releasates from blank particles | recruited the same percentage of FoxP3+ cells | similar | induced endogenous production of CCL-22 | –
2 | CCL22: chemokine that binds the CCR4 receptor, involved in migration of regulatory T-cells (protein, UniProt O00626 25-93, looked up) C-C motif chemokine 22: GPYGANMEDSVCCRDYVRYRLPLRVVKHFYWTSDSCPRPGVVLLTFRDKEICADPRVPWVKMILNKLSQ | – | – | – | – | – | – | significantly greater migration of activated regulatory and effector CD4+ T cells; also recorded: activated T cells (both regulatory and effector cell populations), but not naïve T cells, migrated towards a CCL22 gradient
